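Protocol summary: plate cells (96-well), add compound at 5 concentrations, incubate 48 h, interpolate endpoints linearly. TGI denotes the concentration required for complete inhibition of growth.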
Tests used:
Experiment in all cases: DTP human tumour cell line panel, 48 h
[1] = tested on: BT-549 breast
[2] = tested on: CCRF-CEM leukemia
[3] = tested on: EKVX NSCLC
[4] = tested on: HOP-92 NSCLC
[5] = tested on: OVCAR-5 ovarian
[6] = tested on: HT29 colon
[7] = tested on: NCI-H460 lung
[8] = tested on: NCI/ADR-RES ovarian
[9] = tested on: LOX IMVI melanoma
[10] = tested on: T-47D breast
[11] = tested on: NCI-H226 lung
[12] = tested on: HCT-15 colon
[13] = tested on: MCF7 breast
[14] = tested on: K-562 leukemia
[15] = tested on: ACHN renal
[16] = tested on: TK-10 renal
[17] = tested on: RPMI-8226 leukemia
[18] = tested on: OVCAR-4 ovarian
[19] = tested on: UO-31 renal
[20] = tested on: HCT-116 colon
[21] = tested on: OVCAR-3 ovarian
[22] = tested on: IGROV1 ovarian
[23] = tested on: NCI-H23 lung
[24] = tested on: OVCAR-8 ovarian
[25] = tested on: UACC-62 melanoma
[26] = tested on: UACC-257 melanoma
[27] = tested on: HOP-62 NSCLC
[28] = tested on: SNB-19 CNS
[29] = tested on: MOLT-4 leukemia
[30] = tested on: HL-60(TB) leukemia
[31] = tested on: U251 CNS
[32] = tested on: MDA-MB-231 breast
[33] = tested on: A549 NSCLC
[34] = tested on: SK-MEL-28 melanoma
[35] = tested on: DU-145 prostate
[36] = tested on: PC-3 prostate
[37] = tested on: SK-OV-3 ovarian
[38] = tested on: SW-620 colon
[39] = tested on: SK-MEL-5 melanoma
[40] = tested on: M14 melanoma
[41] = tested on: MALME-3M melanoma
[42] = tested on: SF-268 CNS
[43] = tested on: COLO 205 colon
[44] = tested on: SR leukemia
[45] = tested on: SNB-75 CNS
[46] = tested on: MDA-MB-435
[47] = tested on: HCC-2998 colon
[48] = tested on: 786-0 renal
[49] = tested on: SF-295 CNS
[50] = tested on: A498 renal
[51] = tested on: SN12C renal
[52] = tested on: SK-MEL-2 melanoma
[53] = tested on: SF-539 CNS
[54] = tested on: NCI-H522 lung
[55] = tested on: KM12 colon
[56] = tested on: HS 578T breast

Measured: TGI

Nn1nnc2ccccc21
> 100 µM: [1] | [2] | [3] | [4] | [5] | [6] | [7] | [8] | [9] | [10] | [11] | [12] | [13] | [14] | [15] | [16] | [17] | [18] | [19] | [20] | [21] | [22] | [23] | [24] | [25] | [26] | [27] | [28] | [29] | [30] | [31] | [32] | [33] | [34] | [35] | [36] | [37] | [38] | [39] | [40] | [41] | [42] | [43] | [44] | [45] | [46] | [47] | [48] | [49] | [50] | [51]

O=C(NCCCn1ccnc1[N+](=O)[O-])C(=O)NCCCn1ccnc1[N+](=O)[O-]
> 100 µM: [2] | [52] | [3] | [5] | [6] | [7] | [53] | [11] | [12] | [13] | [14] | [15] | [16] | [17] | [54] | [20] | [21] | [23] | [24] | [26] | [27] | [29] | [30] | [31] | [55] | [34] | [36] | [41] | [42] | [44] | [45] | [47] | [48] | [49] | [56] | [51]
